The subject of this assay is SARS-CoV-2 circulation lineages in Colombia (B.1, B.1.111, B.1.111+E48K). Particulars: in vivo, sc.

In the case of CGKDQVILLNKHIDAYKTFPPTGC [PHE-30], the sera neutralizing antibodies result is on record as “detected”.

In the case of CGVLSFELLHAPATVSGPKKSTNGC [PHE-14], the sera neutralizing antibodies entry was “detected”.

Regarding CGVTLAILTALRLSAYSSNIVGC [PHE-20], the sera neutralizing antibodies result is “detected”.

The values above are taken from patent US20220125913A1, “[…] PEPTIDES, AMINO-ACID SEQUENCES, AND COMPOSITIONS USEFUL FOR SARS-CoV-2 DETECTION AND COVID-19 PREVENTION” (priority 2020, published 2022).
